Data reported in PubChem BioAssay (NCI).
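Test compounds were applied to cells in 96-well plates for 48 hours at 5 doses. GI50 marks 50% less growth. TGI: total growth inhibition.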

How the values were obtained:
Test in all cases: NCI anticancer screen, dose series, 48 h
[1] = system: ACHN renal
[2] = system: UACC-62 melanoma
[3] = system: MCF7 breast
[4] = system: SW-620 colon
[5] = system: BT-549 breast
[6] = system: SK-MEL-28 melanoma
[7] = system: MALME-3M melanoma
[8] = system: K-562 leukemia
[9] = system: COLO 205 colon
[10] = system: HCT-116 colon

SMILES	GI50 [1] [µM]	TGI [1] [µM]	GI50 [2] [µM]	TGI [2] [µM]	GI50 [3] [µM]	TGI [3] [µM]	GI50 [4] [µM]	TGI [4] [µM]	GI50 [5] [µM]	TGI [5] [µM]	GI50 [6] [µM]	TGI [6] [µM]	GI50 [7] [µM]	TGI [7] [µM]	GI50 [8] [µM]	TGI [8] [µM]	GI50 [9] [µM]	TGI [9] [µM]	GI50 [10] [µM]	TGI [10] [µM]
C/C(=N/O)c1ccc2c(c1)/C(=N/O)c1ccccc1-2	20.6	46.1	18.3	37.5	15.3	35.8	19.3	44.2	21.4	50.4	17.9	39.9	21.9	46	15.8	32.4	18.1	35.6	20.7	38.5
CCCCN=C(N)c1ccc(N2CCCN(c3ccc(C(N)=NCCCC)cc3)CC2)cc1	> 21.9	> 100	7.58	27.5	7.44	> 100	13.6	> 100	14.4	> 58.3	31.2	> 100	1	26.2	3.69	> 100	6.82	> 100	21	> 100
COc1cc(/C=C/C(=O)/C=C/c2cc3ccc(Cl)cc3n(Cc3ccccc3)c2=O)ccc1O	1.33	2.62	1.29	3.71	0.418	12.3	1.56	4.33	1.69	4.53	1.85	5.53	1.94	4.64	1.89	> 100	1.97	6.25	0.768	2.15
O=C(CCl)Nc1cc(Cl)c(Cl)cc1Cl	–	4.58	–	3.59	–	3.6	–	5.72	–	3.53	–	4.04	–	2.88	–	> 10	–	3.35	–	2.94
NC(Cc1c[nH]c2ccc(F)cc12)C(=O)O (stereo not drawn)	738	> 2500	755	> 2500	911	> 2500	1170	> 2500	580	1620	795	> 2500	490	1130	887	> 2500	340	1010	853	> 2500
O=c1c2ccccc2nc(-c2ccccc2Cl)n1-c1nnc(C(F)(F)F)s1	3.74	27.7	2.85	14.4	3.03	> 100	3.4	15.9	3.36	10.9	4.63	90.9	2.51	7.35	3.77	> 100	3.86	21.3	2.7	10.1
CCCCCCCCCCCCCCCCCCOc1ccccc1CC(=O)OCC[N+](CC)(CC)CC	4.39	11.3	1.16	3.37	1.35	5.25	1.82	7.33	1.95	9.22	1.9	7.55	1.31	3.77	1.5	50	–	–	1.61	7.76
COc1cc(/C=C/C(=O)N2CCC=CC2=O)cc(OC)c1OC	1.73	3.28	1.85	3.82	2.36	13.9	2.51	6.61	2.45	7.84	2.21	5.53	1.97	3.97	2.98	> 100	1.93	4.14	1.8	4.13
CCOC(=O)/C(C#N)=C1\SS/C(=C(/C#N)C(=O)OCC)S1	14.8	29.5	15.8	32.6	18.3	41.1	5.4	32.7	17.8	32.7	18.9	34.1	11.6	27.4	7.99	> 100	0.861	2.67	14.2	33.5
CCN(CC)c1ccc(C2NC(=O)c3ccccc3N2)cc1 (stereo not drawn)	–	> 100	–	> 100	–	> 100	–	> 100	–	> 100	–	> 100	–	> 100	–	> 100	–	4.51	–	> 100
